{"source": "paper PMC12624573", "about": "“The antigen presentation landscape of cytokine-stressed human pancreatic islets” (Cell reports, 2025)", "data": [{"system": "CD8+ T cells from PBMC", "assay": "IFN-γ ELISpot, PBMC-derived in vitro expanded CD8+ T cell lines", "type": "cell-based, human", "parameters": "key to T cell recognition by PBMC from a T1D donor: E: T cell recognition by PBMC from a T1D donor was tested and verified; see Figure 5", "conditions": "not given", "values": [{"sequence": "TLDGSLHAV [peptide 79, 11]", "IFN-γ ELISpot response of expanded CD8+ T cells": "Responses"}]}, {"system": "CD8+ T cells from PBMC", "assay": "IFN-γ ELISpot, PBMC-derived in vitro expanded CD8+ T cell lines", "type": "cell-based, human", "parameters": "key to T cell recognition by PBMC from a T1D donor: E: T cell recognition by PBMC from a T1D donor was tested and verified; see Figure 5", "conditions": "A2 Set Peptides; PBMC T cell lines; responding donors/donors tested", "values": [{"sequence": "ALLDVTPKAV [compound 140, 18]", "T1D Donor T cell response": "0/4", "non-T1D Donor T cell response": "0/2"}, {"sequence": "YINEKNVAL [compound 105, 14]", "T1D Donor T cell response": "0/4", "non-T1D Donor T cell response": "0/2"}, {"sequence": "KQMEQISQF [compound 137, 18]", "T1D Donor T cell response": "0/4", "non-T1D Donor T cell response": "0/2"}, {"sequence": "HLKALTSEL [compound 114, 15]", "T1D Donor T cell response": "0/5", "non-T1D Donor T cell response": "0/2"}, {"sequence": "KVIEINPYL [compound 123, 16]", "T1D Donor T cell response": "0/5", "non-T1D Donor T cell response": "0/2"}, {"sequence": "HQNQLLSSL [compound 143, 18]", "T1D Donor T cell response": "0/4", "non-T1D Donor T cell response": "0/2"}, {"sequence": "RLSDAQIYV [compound 103, 14]", "T1D Donor T cell response": "0/4", "non-T1D Donor T cell response": "0/2"}, {"sequence": "FLIRESETL [compound 109, 14]", "T1D Donor T cell response": "1/4", "non-T1D Donor T cell response": "0/2"}, {"sequence": "FLKEPALNEA [compound 124, 16]", "T1D Donor T cell response": "0/4", "non-T1D Donor T cell response": "0/2"}, {"sequence": "VLHEGTNFV [compound 104, 14]", "T1D Donor T cell response": "0/4", "non-T1D Donor T cell response": "0/2"}, {"sequence": "QLSDVAEKL [compound 128, 17]", "T1D Donor T cell response": "0/4", "non-T1D Donor T cell response": "0/2"}, {"sequence": "ALLETVNRL [compound 99, 13]", "T1D Donor T cell response": "0/5", "non-T1D Donor T cell response": "0/2"}, {"sequence": "AILETAPKEV [compound 129, 17]", "T1D Donor T cell response": "0/4", "non-T1D Donor T cell response": "0/2"}, {"sequence": "RLDDLKMTV [compound 82, 11]", "T1D Donor T cell response": "1/5", "non-T1D Donor T cell response": "0/2"}, {"sequence": "GLDRLNVTV [peptide 101, 14]", "T1D Donor T cell response": "4/4", "non-T1D Donor T cell response": "0/2"}, {"sequence": "KLQELNYNL [compound 132, 17]", "T1D Donor T cell response": "0/4", "non-T1D Donor T cell response": "0/2"}, {"sequence": "RLQDELVTL [compound 110, 15]", "T1D Donor T cell response": "0/4", "non-T1D Donor T cell response": "0/2"}, {"sequence": "TLVEAIKQV [compound 113, 15]", "non-T1D Donor T cell response": "0/2"}, {"sequence": "QQQQKIIAL [compound 91, 12]", "T1D Donor T cell response": "0/5", "non-T1D Donor T cell response": "0/2"}, {"sequence": "SLIGHLQTL [compound 95, 13]", "T1D Donor T cell response": "1/4", "non-T1D Donor T cell response": "0/2"}, {"sequence": "QLMAEKLQL [compound 115, 15]", "T1D Donor T cell response": "0/4", "non-T1D Donor T cell response": "0/2"}, {"sequence": "AQLENPAAV [compound 97, 13]", "T1D Donor T cell response": "0/4", "non-T1D Donor T cell response": "0/2"}, {"sequence": "KLTENLVAL [compound 92, 12]", "T1D Donor T cell response": "0/5", "non-T1D Donor T cell response": "0/2"}, {"sequence": "ALKPLAAAL [compound 138, 18]", "T1D Donor T cell response": "0/4", "non-T1D Donor T cell response": "0/2"}, {"sequence": "RLSDVQIYV [compound 102, 14]", "T1D Donor T cell response": "1/4", "non-T1D Donor T cell response": "0/2"}, {"sequence": "RYLEQLHQL [compound 135, 17]", "T1D Donor T cell response": "0/4", "non-T1D Donor T cell response": "0/2"}, {"sequence": "FIASKGVKLV [compound 86, 12]", "T1D Donor T cell response": "0/5", "non-T1D Donor T cell response": "0/2"}, {"sequence": "YLKHRLIVV [compound 134, 17]", "T1D Donor T cell response": "0/4", "non-T1D Donor T cell response": "0/2"}, {"sequence": "KVDEAVAVL [compound 83, 11]", "T1D Donor T cell response": "0/4", "non-T1D Donor T cell response": "0/2"}, {"sequence": "ALYDNVEKL [compound 89, 12]", "T1D Donor T cell response": "0/4", "non-T1D Donor T cell response": "0/2"}, {"sequence": "LLSDTVQHL [compound 136, 17]", "T1D Donor T cell response": "0/4", "non-T1D Donor T cell response": "0/2"}, {"sequence": "AMFDQSQIQEF [compound 116, 15]", "T1D Donor T cell response": "1/4", "non-T1D Donor T cell response": "0/2"}, {"sequence": "ALMEAIHSA [compound 93, 13]", "T1D Donor T cell response": "1/4", "non-T1D Donor T cell response": "0/2"}, {"sequence": "ALLDQALSNA [compound 111, 15]", "T1D Donor T cell response": "0/4", "non-T1D Donor T cell response": "0/2"}, {"sequence": "VIANEIEKV [compound 88, 12]", "T1D Donor T cell response": "0/5", "non-T1D Donor T cell response": "0/2"}, {"sequence": "ALAEEVEQV [compound 87, 12]", "T1D Donor T cell response": "0/4", "non-T1D Donor T cell response": "0/2"}, {"sequence": "SLLQGSPHL [compound 122, 16]", "T1D Donor T cell response": "0/4", "non-T1D Donor T cell response": "0/2"}, {"sequence": "LIQDRVAEV [compound 106, 14]", "T1D Donor T cell response": "1/5", "non-T1D Donor T cell response": "0/2"}, {"sequence": "SLAEGLRTV [compound 120, 16]", "T1D Donor T cell response": "0/4", "non-T1D Donor T cell response": "0/2"}, {"sequence": "RLYDPTEGMVSV [compound 85, 12]", "T1D Donor T cell response": "0/4", "non-T1D Donor T cell response": "0/2"}, {"sequence": "RVAEVQQVL [compound 107, 14]", "T1D Donor T cell response": "0/5", "non-T1D Donor T cell response": "0/2"}, {"sequence": "KLLDPEDVAVQL [compound 142, 18]", "T1D Donor T cell response": "0/4", "non-T1D Donor T cell response": "0/2"}, {"sequence": "TLDGSLHAV [peptide 79, 11]", "T1D Donor T cell response": "1/5", "non-T1D Donor T cell response": "0/2"}]}, {"system": "CD8+ T cells from PBMC", "assay": "IFN-γ ELISpot, PBMC-derived in vitro expanded CD8+ T cell lines", "type": "cell-based, human", "parameters": "key to T cell recognition by PBMC from a T1D donor: E: T cell recognition by PBMC from a T1D donor was tested and verified; see Figure 5", "conditions": "HPAP-A2 Pool Peptides; PBMC T cell lines; responding donors/donors tested", "values": [{"sequence": "VLAFLVHEL [compound 156]", "T1D Donor T cell response": "1/5", "non-T1D Donor T cell response": "0/4"}, {"sequence": "NLKEAIETI [compound 163]", "T1D Donor T cell response": "0/4", "non-T1D Donor T cell response": "0/4"}, {"sequence": "KLLESFKI [compound 160]", "T1D Donor T cell response": "0/4", "non-T1D Donor T cell response": "0/4"}, {"sequence": "FLIEEIERL [compound 161]", "T1D Donor T cell response": "0/4", "non-T1D Donor T cell response": "0/4"}, {"sequence": "ALKPLAAAL [compound 169]", "T1D Donor T cell response": "0/4", "non-T1D Donor T cell response": "0/4"}, {"sequence": "KQFPEVIKY [compound 157]", "T1D Donor T cell response": "0/5", "non-T1D Donor T cell response": "0/4"}, {"sequence": "ALLETVNRL [compound 162]", "T1D Donor T cell response": "0/4", "non-T1D Donor T cell response": "0/4"}, {"sequence": "ALDGPPIKV [compound 164]", "T1D Donor T cell response": "0/4", "non-T1D Donor T cell response": "0/4"}, {"sequence": "TAISRIYTV [compound 158]", "T1D Donor T cell response": "0/4", "non-T1D Donor T cell response": "0/4"}, {"sequence": "KVIEINPYL [compound 166]", "T1D Donor T cell response": "0/4", "non-T1D Donor T cell response": "0/4"}, {"sequence": "IIVDIFHGL [compound 170]", "T1D Donor T cell response": "0/4", "non-T1D Donor T cell response": "0/4"}, {"sequence": "DVIEKIRYV [compound 159]", "T1D Donor T cell response": "0/4", "non-T1D Donor T cell response": "0/4"}, {"sequence": "FTNHFLVEL [compound 165]", "T1D Donor T cell response": "0/4", "non-T1D Donor T cell response": "0/4"}]}, {"system": "CD8+ T cells from PBMC", "assay": "IFN-γ ELISpot, PBMC-derived in vitro expanded CD8+ T cell lines", "type": "cell-based, human", "parameters": "key to T cell recognition by PBMC from a T1D donor: E: T cell recognition by PBMC from a T1D donor was tested and verified; see Figure 5", "conditions": "MHC-I peptides; superscript E on the peptide; F = verified with C1R-A2 cells", "values": [{"sequence": "ALANHLIKV", "T cell recognition by PBMC from a T1D donor": "ALANHLIKV ^ E"}, {"sequence": "RSAAVLALL", "T cell recognition by PBMC from a T1D donor": "RSAAVLALL ^E,F"}, {"sequence": "GLDDIKDLKV", "T cell recognition by PBMC from a T1D donor": "GLDDIKDLKV ^ E"}, {"sequence": "AMFDQSQIQEF", "T cell recognition by PBMC from a T1D donor": "AMFDQSQIQEF ^E, F"}, {"sequence": "SLIGHLQTL", "T cell recognition by PBMC from a T1D donor": "SLIGHLQTL ^ E"}, {"sequence": "RLDDLKMTV", "T cell recognition by PBMC from a T1D donor": "RLDDLKMTV ^ E"}]}, {"system": "CD8+ T cells from PBMC", "assay": "IFN-γ ELISpot, PBMC-derived in vitro expanded CD8+ T cell lines", "type": "cell-based, human", "parameters": "key to T cell recognition by PBMC from a T1D donor: E: T cell recognition by PBMC from a T1D donor was tested and verified; see Figure 5", "conditions": "PTM and unmodified native Pool Peptides (pool PTM 1), 9-mer peptides; PBMC T cell lines; responding donors/donors tested", "values": [{"sequence": "QADFAIEAL [compound 150, non-modified native peptide, pool PTM A2]", "T1D Donor T cell response": "0/4", "non-T1D Donor T cell response": "0/3"}]}, {"system": "CD8+ T cells from PBMC", "assay": "IFN-γ ELISpot, PBMC-derived in vitro expanded CD8+ T cell lines", "type": "cell-based, human", "parameters": "key to T cell recognition by PBMC from a T1D donor: E: T cell recognition by PBMC from a T1D donor was tested and verified; see Figure 5", "conditions": "SEC (Secretory) A2 Peptides Set; PBMC T cell lines; responding donors/donors tested", "values": [{"sequence": "GSHLVEALY [compound 172, secretory hormone eluted peptide, pool SEC A2]", "T1D Donor T cell response": "0/4"}, {"sequence": "KEFIAWLV [compound 174, secretory hormone eluted peptide, pool SEC A2]", "T1D Donor T cell response": "0/4"}]}, {"system": "CD8+ T cells from PBMC", "assay": "IFN-γ ELISpot, PBMC-derived in vitro expanded CD8+ T cell lines", "type": "cell-based, human", "parameters": "key to T cell recognition by PBMC from a T1D donor: E: T cell recognition by PBMC from a T1D donor was tested and verified; see Figure 5", "conditions": "T1D donors, PBMC-derived lines (Figure 5J)", "values": [{"sequence": "GLDRLNVTV [peptide 101, 14]", "Number of donors whose CD8 T cells recognized the peptide (IFN-γ ELISpot)": "all four donors"}]}]}
